{"source": "patent US6348614B1", "about": "(priority 1996, dated 2002)", "key": {"Venturia inaequalis": {"system": "Venturia inaequalis", "conditions": "0.03 M; cited from earlier work"}, "[1]": {"system": "Pseudoperonospora cubensis", "experiment": "Downy mildew in cucumber (Table 8)", "conditions": "500 ppm, 7 days after inoculation", "method": "Cucumber plants (cv,Dlila) and melon plants (cv.Ein Dor) were raised from seeds in 0.2 liter pots in the greenhouse. At 3 weeks after sowing when had 3 true leaves they were inoculated with sporangial suspension (1000 sporangia/ml) of P.cubensis (resistant to metalaxyl) and placed in 100% relative humidity in the dark for 20 hr. They were then place in a 20° C. growth cabinet for 7 days and assessed for disease development. Percentage leaf area covered with disease symptoms was evaluated and control efficacy was calculated relative to control inoculated plants."}, "Phytophthora infestans [2]": {"system": "Phytophthora infestans", "type": "in vivo", "conditions": "Tomato, 500 ppm, 7 days after inoculation"}, "Phytophthora infestans [3]": {"system": "Phytophthora infestans", "type": "in vivo"}, "Erysiphe graminis hordei": {"system": "Erysiphe graminis hordei", "experiment": "Powdery mildew in barley (Table 5)", "from_the_text": "(§1) For the following experiments we have used 10-days old potted wheat plants (Triticum asetivum cultivar Atir) and barley plants (Hhordeum vulgaris cultivar Amidon).\n(§2) Plants were sprayed with the test compounds and two days lated were inoculated with the powdery mildew fungal pathogens. Wheat was inoculated with Erysiphe granims tritici. Barley was inoculated with the powdery Erysiphe granims hordei.\n(§3) Inoculation was done by shaking infected donor plants harboring abundant conidia over the treated plants. Untreated plants were also inoculated as controls. Inoculated plants were placed in a growth chamber at 20-22C with 1 rhr photoperioed and 50-60% RH. At 9-10 days after inoculation disease intesity was visually assessed by estimating the percentage leaf area occupied by fungal colonies.\n(§4) Control efficacy of the disease achieved by the sprayed test compound was calculated relative to the amount of disease seen in the control."}, "Phytophthora infestans [4]": {"system": "Phytophthora infestans", "type": "in vivo", "remark": "listed apart in the source"}, "[5]": {"system": "Erysiphe graminis tritici", "experiment": "Powdery mildew in wheat (Table 5)", "from_the_text": "as §1, §2, §3, §4"}, "[6]": {"system": "Erysiphe graminis tritici", "experiment": "Powdery mildew in wheat, additional examples (Table 6)", "type": "in vivo", "conditions": "500 ppm, 7 days after inoculation", "protocol": "Wheat plants (cv.Shafir) were raised from seed in the greenhouse, 30 plants per 0.2 liter pot. When the first leaf was fully developed plants were sprayed with the test solutions and placed in a 20° C. growth cabinet. Two days after spraying plants were dusted with conidia of E. graminis tritict so that about 100 spores were settled on 1 cm^2 of leaf area (both surfaces). […] Control efficacy was calculated relative to number of colonies developed on the control-inoculated untreated plants."}, "[7]": {"conditions": "Barley 17.9.96, dose 500 (unit not given)"}, "[8]": {"conditions": "Barley 17.9.96, dose 2000 (unit not given)"}}, "note": "Read-outs that look alike come from different tables or passages of the source."}
{"smiles": "CC(C)C[C@@H](N)C(=O)O", "note": "[D-leucine, D-and DL leucine]", "values": [{"measurement": "reduction of scab in apple", "setting": "Venturia inaequalis", "value": "reduce scab"}]}
{"smiles": "CCC(N)C(=O)O", "note": "(racemic) [DL-α-aminobutyric acid]", "values": [{"measurement": "reduction of scab in apple", "setting": "Venturia inaequalis", "value": "reduce scab"}]}
{"smiles": "CC(C)CC(N)C(=O)O", "note": "(stereo not drawn) [DL leucine]", "values": [{"measurement": "reduction of scab in apple", "setting": "Venturia inaequalis", "value": "reduce scab"}]}
{"smiles": "Cc1ccc(C(=O)NC(C)CC(=O)OC2CCCCC2)cc1", "note": "(stereo not shown) [compound 37, D,L N-4-methylbenzoyl-3-aminobutyric acid cyclohexyl ester]", "values": [{"measurement": "Control efficacy (%) 7d", "setting": "[1]", "value": 75, "unit": "%"}, {"measurement": "Control efficacy (%) 7d", "setting": "Phytophthora infestans [2]", "value": 78, "unit": "%"}]}
{"smiles": "CCCCCCCOC(=O)CC(C)NS(=O)(=O)c1ccc(Cl)cc1", "note": "(stereo not shown) [compound 40, D,L N-4-chlorobenzenesulfonyl-3-aminobutyric acid heptyl ester]", "values": [{"measurement": "Control efficacy (%) 7d", "setting": "[1]", "value": 82, "unit": "%"}]}
{"smiles": "CC(CC(=O)OCCCl)NC(=O)c1ccc(Cl)cc1", "note": "(racemic) [Example 6, D,L-N-4-chlorobenzoyl-3-aminobutyric acid 2-chloro-ethyl ester]", "values": [{"measurement": "Control Efficacy %", "setting": "Phytophthora infestans [3]; Tomato, 12.7.96, 500 ppm", "value": 76, "unit": "%"}, {"measurement": "Control Efficacy %", "setting": "Phytophthora infestans [3]; Tomato, 12.7.96, 2000 ppm", "value": 79, "unit": "%"}, {"measurement": "Control Efficacy %", "setting": "Phytophthora infestans [3]; Tomato, 14.8/96, 2000 ppm", "value": 67, "unit": "%"}, {"measurement": "Control Efficacy %", "setting": "Erysiphe graminis hordei; [7]", "value": 62, "unit": "%"}, {"measurement": "Control Efficacy %", "setting": "Erysiphe graminis hordei; [8]", "value": 75, "unit": "%"}, {"measurement": "Control Efficacy %", "setting": "Phytophthora infestans [4]; Potato, 14.8.96, 2000 ppm", "value": 88, "unit": "%"}, {"measurement": "Control Efficacy %", "setting": "Phytophthora infestans [4]; Potato, 17.7.096, 500 ppm", "value": 75, "unit": "%"}, {"measurement": "Control Efficacy %", "setting": "Phytophthora infestans [4]; Potato, 17.7.096, 2000 ppm", "value": 50, "unit": "%"}]}
{"smiles": "CC(CC(=O)NCc1ccccc1)NS(=O)(=O)c1ccccc1", "note": "(racemic) [Example 1, D,L-N-benzenesulfonyl-3-amino N-benzyl butyramide]", "values": [{"measurement": "Control Efficacy %", "setting": "Phytophthora infestans [3]; Tomato, 12.7.96, 500 ppm", "value": 82, "unit": "%"}, {"measurement": "Control Efficacy %", "setting": "Phytophthora infestans [3]; Tomato, 12.7.96, 2000 ppm", "value": 97, "unit": "%"}, {"measurement": "Control Efficacy %", "setting": "Phytophthora infestans [3]; Tomato, 14.8/96, 2000 ppm", "value": 90, "unit": "%"}, {"measurement": "Control Efficacy %", "setting": "Erysiphe graminis hordei; [7]", "value": 25, "unit": "%"}, {"measurement": "Control Efficacy %", "setting": "Erysiphe graminis hordei; [8]", "value": 75, "unit": "%"}, {"measurement": "Control Efficacy %", "setting": "Phytophthora infestans [4]; Potato, 14.8.96, 2000 ppm", "value": 72, "unit": "%"}, {"measurement": "Control Efficacy %", "setting": "Phytophthora infestans [4]; Potato, 17.7.096, 500 ppm", "value": 57, "unit": "%"}, {"measurement": "Control Efficacy %", "setting": "Phytophthora infestans [4]; Potato, 17.7.096, 2000 ppm", "value": 77, "unit": "%"}, {"measurement": "Control Efficacy %", "setting": "Phytophthora infestans [4]; Potato, 26.7.96, 500 ppm", "value": 49, "unit": "%"}, {"measurement": "Control Efficacy %", "setting": "Phytophthora infestans [4]; Potato, 26.7.96, 2000 ppm", "value": 79, "unit": "%"}]}
{"smiles": "C[C@@H](N)C(=O)O", "note": "[D-alaninie]", "values": [{"measurement": "reduction of scab in apple", "setting": "Venturia inaequalis", "value": "reduce scab"}]}
{"smiles": "CC(CC(=O)Nc1ccccc1)NS(=O)(=O)c1ccccc1", "note": "(racemic) [Example 2, D,L-N-benzensulfonyl-3-aminobutyranilide]", "values": [{"measurement": "Control Efficacy %", "setting": "Phytophthora infestans [3]; Tomato, 12.7.96, 500 ppm", "value": 85, "unit": "%"}, {"measurement": "Control Efficacy %", "setting": "Phytophthora infestans [3]; Tomato, 12.7.96, 2000 ppm", "value": 85, "unit": "%"}, {"measurement": "Control Efficacy %", "setting": "Phytophthora infestans [3]; Tomato, 14.8/96, 2000 ppm", "value": 83, "unit": "%"}, {"measurement": "Control Efficacy %", "setting": "Phytophthora infestans [4]; Potato, 14.8.96, 2000 ppm", "value": 74, "unit": "%"}, {"measurement": "Control Efficacy %", "setting": "Phytophthora infestans [4]; Potato, 17.7.096, 500 ppm", "value": 45, "unit": "%"}, {"measurement": "Control Efficacy %", "setting": "Phytophthora infestans [4]; Potato, 17.7.096, 2000 ppm", "value": 81, "unit": "%"}, {"measurement": "Control Efficacy %", "setting": "Phytophthora infestans [4]; Potato, 26.7.96, 500 ppm", "value": 42, "unit": "%"}, {"measurement": "Control Efficacy %", "setting": "Phytophthora infestans [4]; Potato, 26.7.96, 2000 ppm", "value": 68, "unit": "%"}]}
{"smiles": "CCCCCCCCOC(=O)CC(C)NC(=O)c1ccc(Cl)c(Cl)c1", "note": "(racemic) [Example 5, D,L-N-3,4-dichlorobenzoyl-3-aminobutyric acid n-octyl ester]", "values": [{"measurement": "Control Efficacy %", "setting": "[5]; Wheat 7.8.96, dose 500 (unit not given)", "value": 76, "unit": "%"}, {"measurement": "Control Efficacy %", "setting": "[5]; Wheat 7.8.96, dose 2000 (unit not given)", "value": 92, "unit": "%"}, {"measurement": "Control Efficacy %", "setting": "Erysiphe graminis hordei; [7]", "value": 82, "unit": "%"}, {"measurement": "Control Efficacy %", "setting": "Erysiphe graminis hordei; [8]", "value": 85, "unit": "%"}]}
{"smiles": "CCCOC(=O)CC(C)NS(=O)(=O)c1ccc(Cl)cc1", "note": "(stereo not shown) [compound 35, D,L N-4-chlorobenzenesulfonyl-3-aminobutyric acid propyl ester]", "values": [{"measurement": "Control efficacy (%) 7d", "setting": "[6]", "value": 81, "unit": "%"}, {"measurement": "Control efficacy (%) 7d", "setting": "[1]", "value": 77, "unit": "%"}, {"measurement": "Control efficacy (%) 7d", "setting": "Phytophthora infestans [2]", "value": 81, "unit": "%"}]}
{"smiles": "Cc1ccc(C(=O)NC(C)CC(=O)OCCC(Cl)(Cl)Cl)cc1", "note": "(stereo not shown) [compound 36, D,L N-4-methylbenzoyl-3-aminobutyric acid 2-(trichloromethyl)ethyl ester]", "values": [{"measurement": "Control efficacy (%) 7d", "setting": "[1]", "value": 82, "unit": "%"}, {"measurement": "Control efficacy (%) 7d", "setting": "Phytophthora infestans [2]", "value": 81, "unit": "%"}]}
{"smiles": "CC(CC(=O)OC1CCCCC1)NS(=O)(=O)c1ccccc1", "note": "(stereo not shown) [compound 39, D,L N-benzenesulfonyl-3-aminobutyric acid cyclohexyl ester]", "values": [{"measurement": "Control efficacy (%) 7d", "setting": "[1]", "value": 70, "unit": "%"}, {"measurement": "Control efficacy (%) 7d", "setting": "Phytophthora infestans [2]", "value": 75, "unit": "%"}]}
{"smiles": "CC(CC(=O)OC1CCCCC1)NC(=O)c1ccccc1", "note": "(stereo not shown) [compound 38, D,L N-benzoyl-3-aminobutyric acid cyclohexyl ester]", "values": [{"measurement": "Control efficacy (%) 7d", "setting": "[6]", "value": 100, "unit": "%"}, {"measurement": "Control efficacy (%) 7d", "setting": "[1]", "value": 80, "unit": "%"}, {"measurement": "Control efficacy (%) 7d", "setting": "Phytophthora infestans [2]", "value": 78, "unit": "%"}]}
{"smiles": "CCCCC(C)OC(=O)CC(C)NC(=O)c1ccccc1NC", "note": "(stereo not shown) [compound 52, D,L N-2-methylaminobenzoyl-3-aminobutyric acid 1-methylpentyl ester]", "values": [{"measurement": "Control efficacy (%) 7d", "setting": "[1]", "value": 97, "unit": "%"}, {"measurement": "Control efficacy (%) 7d", "setting": "Phytophthora infestans [2]", "value": 75, "unit": "%"}]}
